What was measured:
C1 lysin = C1 lysin (Streptococcus phage C1, UniProt Q7Y3F3); assay: Competition experiments with monosaccharides or cell wall carbohydrate extracts; format: cell-based, C1 bacteriophage; conditions: 20 mM monosaccharide
Experimental: FIG. 7 is a bar graph illustrating lysin pretreated with […] Sugar (GlcNAc for A, L-Rhamnose for AV, or GalNAc for C), or extracted Group A carbohydrate (10 mg/ml). The black marker indicates buffer pretreatment; the gray marker indicates sugar pretreatment; and the white marker indicates Group A carbohydrate pretreatment.
Competition experiments. The three groups of cells were pretreated with monosaccharide or buffer containing 20 mM monosaccharide (GlcNAc for A, L-rhamnose for AV, or GalNAc for C), or extracted Group A carbohydrate (10 mg/ml) prior to exposure to the C1 lysin.

PlyG lysin = format: cell-based, γ phage of Bacillus anthracis; conditions: for blocking of PlyG's killing ability: bacillus RSVF, competition assay
RSVF1 = conditions: cited from earlier work

Chain of C1 lysin (Q7Y3F3 whole entry, looked up): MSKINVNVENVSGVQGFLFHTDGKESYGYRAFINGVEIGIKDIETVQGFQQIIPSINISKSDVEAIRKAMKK

SMILES: C[C@H](O)[C@H](O)[C@@H](O)[C@@H](O)C=O [L-Rhamnose]
- effect of competitor on lysin activity (C1 lysin; AV cells): no decrease

SMILES: O=C[C@H](O)[C@@H](O)[C@@H](O)[C@H](O)CO [galactose]
- blocking of PlyG's killing ability (PlyG lysin): Neither galactose nor N-acetylmannosamine blocked

SMILES: [H]/N=C(/N)N[C@H]1[C@H](O)[C@@H](O)[C@H](O[C@@H]2O[C@@H](C)[C@](O)(C=O)[C@H]2O[C@@H]2O[C@@H](CO)[C@H](O)[C@@H](O)[C@@H]2NC)[C@@H](N/C(N)=N\[H])[C@@H]1O [streptomycin]
- increase in resistance after EMS mutagenesis (RSVF1): 10,000 fold

SMILES: CC(=O)N[C@@H]1C(O)O[C@H](CO)[C@@H](O)[C@@H]1O (some centres unmarked) [N-acetylmannosamine]
- blocking of PlyG's killing ability (PlyG lysin): Neither galactose nor N-acetylmannosamine blocked

SMILES: CO[C@@H]1[C@@H](OC(N)=O)[C@@H](O)[C@H](Oc2ccc3c(O)c(NC(=O)c4ccc(O)c(CC=C(C)C)c4)c(=O)oc3c2C)OC1(C)C [novobiocin]
- increase in resistance after EMS mutagenesis (RSVF1): 1,000 fold

SMILES: CC(=O)N[C@H]1C(O)O[C@H](CO)[C@@H](O)[C@@H]1O (some centres unmarked) [N-acetylglucosamine]
- concentration that could block the lethal action of PlyG (PlyG lysin; exponential phase RSVF1, 15 min at 37° C., CFU ml^-1, FIG. 10): ≤ 0.5 mM
- effect of competitor on lysin activity (C1 lysin; group A cells): no decrease

SMILES: CC(=O)N[C@H]1C(O)O[C@H](CO)[C@H](O)[C@@H]1O (some centres unmarked) [GalNAc, N-acetyl-galactosamine]
- effect of competitor on lysin activity (C1 lysin; group C cells): no decrease

Reference: patent US20070207454A1, “Novel method to identify targets for antibiotic development” (priority 2001, published 2007)
